The values that follow come from patent US8022203B2, “Amino derivatives of beta-homoandrostanes and beta-heteroandrostanes” (Sigma-Tau Industrie Farmaceutiche Riunite S.p.A., priority 2006, dated 2011).

Molecules are shown by their SMILES. Structures can show the parent of a compound that is named as a salt. Where two headings read alike, the source gives them in different places.

Series [1] has as its target Na^+,K^+-ATPase (Canis lupus familiaris, UniProt P50997). In words: Dog kidney Na+,K+-ATPase inhibition (hydrolysis of 32P-ATP). It counts as biochemical.
Series [2] deals with spontaneous hypertensive rats of the Milan (MHS). Briefly: Systolic blood pressure fall in spontaneous hypertensive rats (MHS), tail-cuff. It counts as in vivo, rat. Conditions: 10 μg/kg/os daily, five weeks, vs vehicle control.
For series [3], the system named is anesthetized guinea-pig. Briefly: Inotropic effect and lethal dose, slow intravenous infusion in anesthetized guinea-pig. The settings on record: for % decrease from Emax after 20 min from the end of the infusion: 20 minutes after the end of the infusion; for Maximum dose infused: in the survived animals; for safety ratio compared with reference cardiotonics / duration of the inotropic effect: in words; for duration of the inotropic effect: after stopping the infusion; for Dead/treated / ED80 (dose increasing +dP/dTmax by 80%) / EDmax (dose inducing maximum positive inotropic effect) / Emax % increase in +dP/dTmax: slow intravenous infusion over 90 minutes.

The mark [4] stands for this setting: dog kidney enzyme, read-out: Na^+,K^+-ATPase Inhibition IC50.
The mark [5] stands for this setting: Na^+,K^+-ATPase Inhibition IC50.

One may read the IC50 as the concentration needed to halve the response being measured. As for `CNCCCON=C1CCC2(C)C(CC(=O)NC3C4CCC(=O)C4(C)CCC32)C1` (stereo not shown) [I-aw, (E,Z) 3-(3-N-Methylaminopropoxyimino)-7a-aza-7a-homoandrostane-7,17-dione hydrochloride], the IC50 in series [1] (setting [4]) came out at 9.9 µM.

With `CC12CCC3C(OCCC4CC(=NOCCN)CCC43C)C1CCC2=O` (stereo not shown) [I-bt, (E,Z)-3-(2-Aminoethoxyimino)-7a-oxa-7a-homoandrostane-17-one hydrochloride], the IC50 in series [1] (setting [4]) was determined as 0.16 µM.

Take `CNCCCON=C1CCC2(C)C(C1)NC(=O)CC1C3CCC(=O)C3(C)CCC12` (stereo not shown) [I-ac, (E,Z) 3-(3-N-Methylaminopropoxyimino)-6-aza-7a-homoandrostane-7,17-dione fumarate]: in series [2], the SBP - % came out at 4.2% and the “SBP - mm Hg (decrease in systolic blood pressure)” value was 7.2 +/− 0.7 mm Hg. Moreover, the IC50 in series [1] (setting [4]) worked out at 19 µM.

On to `CC12CCC3C(CC(=O)NC4CC(=NOC5CCNC5)CCC43C)C1CCC2=O` [I-ad, (E,Z) 3-[3-(R)-Pyrrolidinyl]oxyimino-6-aza-7a-homoandrostane-7,17-dione fumarate], for which, in series [1] (setting [5]), the IC50 turned out to be 0.95 µM.

Turning to `CC12CCC3C(CC(=O)OC4CC(=NOCCN)CCC43C)C1CCC2=O` (stereo not shown) [I-bh, (E,Z) 3-(2-Aminoethoxyimino)-6-oxa-7a-homoandrostane-7,17-dione fumarate], in series [1] (setting [4]), the IC50 is 0.24 µM.

With `CNCCCON=C1CCC2(C)C(C1)C(=O)OCC1C3CCC(=O)C3(C)CCC12` (stereo not shown) [I-bf, (E,Z)-3-(3-N-Methylaminopropoxyimino)-7-oxa-7a-homoandrostane-6,17-dione hydrochloride], the IC50 in series [1] (setting [5]) turned out to be 1.9 µM.

Molecule `CC12CCC3C(CC(=O)NC4CC(=NOCCN)CCC43C)C1CCC2=O` (stereo not shown) [I-bm, (E) 3-(2-Aminoethoxyimino)-6-aza-7a-homoandrostane-7,17-dione fumarate] showed an IC50 in series [1] (setting [5]) of 25 µM.

Molecule `CNCCCON=C1CCC2(C)C(C1)OC(=O)CC1C3CCC(=O)C3(C)CCC12` (stereo not shown) [I-bq, (E,Z)-3-(3-N-Methylaminopropoxyimino)-6-oxa-7a-homoandrostane-7,17-dione fumarate] returned a half-inhibitory concentration (IC50) in series [1] (setting [5]) of 3.7 µM.

Take `CC12CCC3C(OC(=O)CC4CC(=NOCCN)CCC43C)C1CCC2=O` (stereo not shown) [I-bi, (E,Z) 3-(2-Aminoethoxyimino)-7a-oxa-7a-homoandrostane-7,17-dione hydrochloride]: the IC50 in series [1] (setting [4]) is 0.85 µM.

As to `CC12CCC3C(C1CCC2=O)N(C=O)CCC1CC(=NOC2CCNC2)CCC13C` [I-bd, (E,Z) 3-[3-(R)-Pyrrolidinyl]oxyimino-7a-aza-7a-formyl-7a-homoandrostane-17-one hydrochloride], the 50% inhibitory concentration (IC50) in series [1] (setting [4]) stood at 57 µM.

The molecule `CC12CCC3C(CCCC4CC(=NOC5CCNC5)CCC43C)C1CCC2=O` [I-bp, (E,Z)-3-[3-(R)-Pyrrolidinyl]oxyimino-B-homoandrostane-17-one hydrochloride] yielded an IC50 in series [1] (setting [5]) of 0.04 µM.

For `CC12CCC3C(NC(=O)CC4CC(=NOCCN)CCC43C)C1CCC2=O` (stereo not shown) [I-av, (E,Z) 3-(2-Aminoethoxyimino)-7a-aza-7a-homoandrostane-7,17-dione hydrochloride], the IC50 in series [1] (setting [4]) was 27 µM.

With `CC12CCC3C(C(=O)NC4CC(=NOC5CCNC5)CCC43C)C1CCC2=O` [I-bv, (E,Z) 3-[3-(R)-Pyrrolidinyl]oxyimino-6-azaandrostane-7,17-dione fumarate], half-maximal inhibition in series [1] (setting [5]) (IC50) was put at 1.4 µM.

For the molecule `CC12CCC3C(CCCC4CC(=NOCCN)CCC43C)C1CCC2=O` (stereo not shown) [I-bo, (E,Z) 3-(2-Aminoethoxyimino)-B-homoandrostane-17-one hydrochloride], the half-inhibitory concentration (IC50) in series [1] (setting [5]) was 0.071 µM.

With `CC12CCC3C(CC(=S)NC4CC(=NOCCN)CCC43C)C1CCC2=O` (stereo not shown) [I-aj, (E,Z) 3-(2-Aminoethoxyimino)-6-aza-7a-homo-7-thioxoandrostane-17-one hydrochloride], in series [1] (setting [4]), the 50% inhibitory concentration (IC50) is 6.5 µM.

`CC12CCC3C(COC(=O)C4CC(=NOCCN)CCC43C)C1CCC2=O` (stereo not shown) [I-be, (E,Z) 3-(2-Aminoethoxyimino)-7-oxa-7a-homoandrostane-6,17-dione hydrochloride]: the midpoint of inhibition in series [1] (setting [5]), the IC50, lay at 1.6 µM.

Regarding `CC12CCC3C(CCNC4CC(=NOC5CCNC5)CCC43C)C1CCC2=O` [I-am, (E,Z) 3-[3-(R)-Pyrrolidinyl]oxyimino-6-aza-7a-homoandrostane-17-one dihydrochloride], the IC50 in series [1] (setting [5]) came out at 9.5 µM.

`CC12CCC3C(COC(=O)C4CC(=NOC5CCNC5)CCC43C)C1CCC2=O` [I-bg, (E,Z) 3-[3-(R)-Pyrrolidinyl]oxyimino-7-oxa-7a-homoandrostane-6,17-dione hydrochloride] yielded a concentration for half-maximal inhibition (IC50) in series [1] (setting [5]) of 0.81 µM.

As to `CC12CCC3C(NCCC4CC(=NOCCN)CCC43C)C1CCC2=O` (stereo not shown) [I-ay, (E,Z) 3-(2-Aminoethoxyimino)-7a-aza-7a-homoandrostane-17-one difumarate], the IC50 in series [1] (setting [4]) came out at 0.4 µM.

With `CC12CCC3C(CC(=O)NC4CC(=NOCCN)CCC43C)C1CCC2=O` (stereo not shown) [I-bn, (Z) 3-(2-Aminoethoxyimino)-6-aza-7a-homoandrostane-7,17-dione fumarate], inhibition in series [1] (setting [5]) was half-maximal at 61 µM (IC50).

As to `CC12CCC3C(C(=O)NC4CC(=NOCCN)CCC43C)C1CCC2=O` (stereo not shown) [I-bu, (E,Z) 3-(2-Aminoethoxyimino)-6-azaandrostane-7,17-dione hydrochloride], the half-inhibitory concentration (IC50) in series [1] (setting [4]) came to 1.1 µM.

For `CNCCCON=C1CCC2(C)C(CCNC3C4CCC(=O)C4(C)CCC32)C1` (stereo not shown) [I-az, (E,Z) 3-(3-N-Methylaminopropoxyimino)-7a-aza-7a-homoandrostane-17-one difumarate], the IC50 in series [1] (setting [4]) is 1.8 µM.

`CC12CCC3C(NCCC4CC(=NOC5CCNC5)CCC43C)C1CCC2=O` [I-ba, (E,Z) 3-[3-(R)-Pyrrolidinyl]oxyimino-7a-aza-7a-homoandrostane-17-one Difumarate]: in series [3], the “% decrease from Emax after 20 min from the end of the infusion” value (“% decrease from Emax after 20 min” for short) amounted to 55%; the Maximum dose infused stood at 50.0 µmol/kg; the “safety ratio compared with reference cardiotonics” value is “higher safety ratios than those displayed by digitoxin and compd 22b”; the “duration of the inotropic effect” value was “prolonged action”. Moreover, in series [3], the Dead/treated is recorded as 0/3, the “ED80 (dose increasing +dP/dTmax by 80%)” value was determined as 1.68 µmol/kg, the “EDmax (dose inducing maximum positive inotropic effect)” value (“EDmax” below) stood at 10.1 µmol/kg and the “Emax % increase in +dP/dTmax” value came out at 218%. Also, in series [1] (setting [5]), the half-inhibitory concentration (IC50) was 0.14 µM.

Regarding `C[C@H]1O[C@@H](O[C@H]2[C@@H](O)C[C@H](O[C@H]3[C@@H](O)C[C@H](O[C@H]4CC[C@@]5(C)[C@H](CC[C@@H]6[C@@H]5C[C@@H](O)[C@]5(C)[C@@H](C7=CC(=O)OC7)CC[C@]65O)C4)O[C@@H]3C)O[C@@H]2C)C[C@H](O)[C@@H]1O` [digoxin, reference compound], in series [3], the “% decrease from Emax after 20 min” value came to 100%, the Maximum dose infused stood at 1.16 µmol/kg, the Dead/treated is given as 10/10 and the “ED80 (dose increasing +dP/dTmax by 80%)” value was determined as 0.29 µmol/kg. Also, in series [3], the “EDmax” value was determined as 0.65 µmol/kg and the “Emax % increase in +dP/dTmax” value is recorded as 158%. Further, in series [3] (calculated in the died animals), the “Lethal dose/ED80” value was 4.0.

Consider `CON=C1CC2C3CCC(=O)C3(C)CCC2C2(C)CCC(=NOC3CCNC3)CC2N1` [I-au, 3-(E,Z)-[3-(R)-Pyrrolidinyl]oxyimino-6-aza-7a-homo-7-(Z)-methoxyimino-androstane-17-one hydrochloride], for which, in series [1] (setting [5]), inhibition was half-maximal at 68 µM (IC50).

Regarding `CON=C1CC2C3CCC(=O)C3(C)CCC2C2(C)CCC(=NOCCN)CC2N1` (stereo not shown) [I-at, (E,Z) 3-(2-Aminoethoxyimino)-6-aza-7a-homo-7-(Z)-methoxyimino-androstane-17-one hydrochloride], the half-inhibitory concentration (IC50) in series [1] (setting [4]) is 48 µM.

`CC12CCC3C(CCN(C=O)C4CC(=NOCCN)CCC34C)C1CCC2=O` (stereo not shown) [I-an, (E,Z) 3-(2-Aminoethoxyimino)-6-aza-6-formyl-7a-homoandrostane-17-one hydrochloride]: the half-inhibitory concentration (IC50) in series [1] (setting [4]) is 23 µM.

`CC12CCC3C(CC(=O)OC4CC(=NOC5CCNC5)CCC43C)C1CCC2=O` [I-br, (E,Z) 3-[3-(R)-Pyrrolidinyl]oxyimino-6-oxa-7a-homoandrostane-7,17-dione fumarate] yielded an IC50 in series [1] (setting [5]) of 1.3 µM.

For the molecule `CC12CCC3C(C(=O)OC4CC(=NOCCN)CCC43C)C1CCC2=O` (stereo not drawn) [I-bl, (E,Z) 3-(2-Aminoethoxyimino)-6-oxa-5β-androstane-7,17-dione hydrochloride], the IC50 in series [1] (setting [4]) is 2.5 µM.

As to `CC12CCC3C(OC(=O)CC4CC(=NOC5CCNC5)CCC43C)C1CCC2=O` [I-bk, (E,Z) 3-[3-(R)-Pyrrolidinyl]oxyimino-7a-oxa-7a-homoandrostane-7,17-dione hydrochloride], in series [3], the “% decrease from Emax after 20 min” value worked out at 50%; the Maximum dose infused is 25.3 µmol/kg; the “safety ratio compared with reference cardiotonics” value is “higher safety ratios than those displayed by digitoxin and compd 22b”; the “duration of the inotropic effect” value is “prolonged action”. In series [3], the Dead/treated is 0/3, the “ED80 (dose increasing +dP/dTmax by 80%)” value worked out at 2.11 µmol/kg, the “EDmax” value was 23.9 µmol/kg and the “Emax % increase in +dP/dTmax” value turned out to be 254%. Further, in series [1] (setting [5]), the 50% inhibitory concentration (IC50) is 0.36 µM.

The molecule `CNCCCON=C1CCC2(C)C(CC(=O)OC3C4CCC(=O)C4(C)CCC32)C1` (stereo not shown) [I-bj, (E,Z) 3-(3-N-Methylaminopropoxyimino)-7a-oxa-7a-homoandrostane-7,17-dione hydrochloride] displayed an IC50 in series [1] (setting [5]) of 2.2 µM.

On to `CC12CCC3C(CCOC4CC(=NOCCN)CCC43C)C1CCC2=O` (stereo not shown) [I-bs, (E,Z)-3-(2-Aminoethoxyimino)-6-oxa-7a-homoandrostane-17-one hydrochloride], for which the IC50 in series [1] (setting [4]) came out at 0.13 µM.

In turn, `CC12CCC3C(NC(=O)CC4CC(=NOC5CCNC5)CCC43C)C1CCC2=O` [I-ax, (E,Z) 3-[3-(R)-Pyrrolidinyl]oxyimino-7a-aza-7a-homoandrostane-7,17-dione hydrochloride] gave an IC50 in series [1] (setting [5]) of 4.8 µM.

As to `CC12CCC3C(CCNC4CC(=NOCCN)CCC43C)C1CCC2=O` (stereo not shown) [I-ak, (E,Z)—3-(2-Aminoethoxyimino)-6-aza-7a-homoandrostane-17-one dihydrochloride], in series [1] (setting [4]), the IC50 was determined as 29 µM.
